From patent publication US6479478B1, “Carbapenem compounds” (Wyeth Lederle Japan, Ltd., priority 1998, dated 2002)
Converted amounts (≈) assume the structure as drawn.

Experiments:
Assay in all cases: Antibacterial test, agar plate dilution method (MIC)
Type in all cases: cell-based
[1] = tested on: S. aureus FDA 209 JC-1; conditions: Staphylococcus aureus, FDA209, MH agar, 37° C., 18 hours
Method: (§1) The antibacterial activities were tested by an agar plate dilution method in accordance with the standard method of The Japanese Chemotherapy Society [Chemotherapy, Vol.29, 76-79(1981)]. A Mulluer-Hinton (MH) agar liquid medium of a test microorganism was cultured overnight at 37° C. and the resultant culture medium was diluted with a buffered saline gelatin (BSG) solution to contain approximately 10^6 cells of the test microorganisms per milliliter, and then the diluted solution was inoculated with a micro-planter at the rate of approximately 5 μl on a MH agar medium containing a test compound. This medium was then incubated at 37° C. for 18 hours. The minimum inhibitory concentration (MIC) is determined as a minimum concentration in which no test microorganism could grow.
(§2) It is noted here that the test organisms used were all standard strains, and test compounds were Compound (8) and (15) obtained in Examples mentioned later.

[2] = tested on: S. enteritridis G14; conditions: MH agar, 37° C., 18 hours
Method: as §1, §2

[3] = tested on: S. aureus MS 353; conditions: Staphylococcus aureus, MS353, MH agar, 37° C., 18 hours
Method: as §1, §2

[4] = tested on: P. aeruginosa NCTC 10490; conditions: Pseudomonas aeruginosa, NCTC10490, MH agar, 37° C., 18 hours
Method: as §1, §2

[5] = tested on: E. cloacae 963; conditions: Enterobacter cloacae, MH agar, 37° C., 18 hours
Method: as §1, §2

[6] = tested on: P. mirabilis IFO 3849; conditions: Proteus mirabilis, IFO3849, MH agar, 37° C., 18 hours
Method: as §1, §2

[7] = tested on: E. coli K-12 C600; conditions: Escherichia coli, K12C600, MH agar, 37° C., 18 hours
Method: as §1, §2

[8] = tested on: S. aureus Terajima; conditions: Staphylococcus aureus, MH agar, 37° C., 18 hours
Method: as §1, §2

[9] = tested on: E. aerogenes ATCC 13048; conditions: Klebsiella aerogenes, ATCC13048, MH agar, 37° C., 18 hours
Method: as §1, §2

[10] = tested on: S. pyogenes Cook; conditions: Streptococcus pyogenes, MH agar, 37° C., 18 hours
Method: as §1, §2

[11] = tested on: S. schottmuelleri 8006; conditions: MH agar, 37° C., 18 hours
Method: as §1, §2

[12] = tested on: S. paratyphi 1015; conditions: Salmonella enterica, MH agar, 37° C., 18 hours
Method: as §1, §2

[13] = tested on: P. vulgaris OX-19; conditions: Proteus vulgaris, OX19, MH agar, 37° C., 18 hours
Method: as §1, §2

[14] = tested on: K. pneumoniae PCI-602; conditions: Klebsiella pneumoniae, PCI602, MH agar, 37° C., 18 hours
Method: as §1, §2

[15] = tested on: M. morganii IFO 3848; conditions: Morganella morganii, IFO3848, MH agar, 37° C., 18 hours
Method: as §1, §2

[16] = tested on: B. subtilis ATCC 6633; conditions: Bacillus subtilis, ATCC6633, MH agar, 37° C., 18 hours
Method: as §1, §2

[17] = tested on: S. typhimurium 11D971; conditions: Salmonella enterica, MH agar, 37° C., 18 hours
Method: as §1, §2

[18] = tested on: M. luteus ATCC 9341; conditions: Micrococcus luteus, ATCC9341, MH agar, 37° C., 18 hours
Method: as §1, §2

[19] = tested on: P. aeruginosa IFO 3445; conditions: Pseudomonas aeruginosa, IFO3445, MH agar, 37° C., 18 hours
Method: as §1, §2

[20] = tested on: P. vulgalis HX-19; conditions: MH agar, 37° C., 18 hours
Method: as §1, §2

[21] = tested on: E. coli NIHJ JC-2; conditions: Escherichia coli, NIHJJC2, MH agar, 37° C., 18 hours
Method: as §1, §2

[22] = tested on: S. typhi 901; conditions: Salmonella enterica, 18 h
Method: as §1, §2

[23] = tested on: P. rettgeri IFO 3850; conditions: Providencia rettgeri, IFO3850, MH agar, 37° C., 18 hours
Method: as §1, §2

[24] = tested on: P. aeruginosa PAO 1; conditions: Pseudomonas aeruginosa, PAO1, MH agar, 37° C., 18 hours
Method: as §1, §2

| Structure (SMILES) | MIC [1] [µg/mL] | MIC [2] [µg/mL] | MIC [3] [µg/mL] | MIC [4] [µg/mL] | MIC [5] [µg/mL] | MIC [6] [µg/mL] | MIC [7] [µg/mL] | MIC [8] [µg/mL] | MIC [9] [µg/mL] | MIC [10] [µg/mL] | MIC [11] [µg/mL] | MIC [12] [µg/mL] | MIC [13] [µg/mL] | MIC [14] [µg/mL] | MIC [15] [µg/mL] | MIC [16] [µg/mL] | MIC [17] [µg/mL] | MIC [18] [µg/mL] | MIC [19] [µg/mL] | MIC [20] [µg/mL] | further results |
| --- | --- | --- | --- | --- | --- | --- | --- | --- | --- | --- | --- | --- | --- | --- | --- | --- | --- | --- | --- | --- | --- |
| C[C@@H](O)[C@H]1C(=O)N2C(C(=O)O)=C(SC3CN(C4=NCCN4C)C3)[C@H](C)[C@H]12 [Compound (8), (1R,5S,6S)-2-[1-(1-methy-2-imidazolin-2-yl)azetidin-3-yl]-thio-6-[(R)-1-hydroxyethyl]-1-methylcarbapen-2-em-3-carbolic acid] | 0.025 (≈ 0.0657 µM) | 0.2 (≈ 0.526 µM) | 0.013 (≈ 0.0342 µM) | 12.5 (≈ 32.9 µM) | 0.1 (≈ 0.263 µM) | 0.78 (≈ 2.05 µM) | 0.1 (≈ 0.263 µM) | 0.013 (≈ 0.0342 µM) | 0.1 (≈ 0.263 µM) | ≤ 0.006 | 0.1 (≈ 0.263 µM) | 0.1 (≈ 0.263 µM) | 0.2 (≈ 0.526 µM) | 0.1 (≈ 0.263 µM) | 0.2 (≈ 0.526 µM) | 0.025 (≈ 0.0657 µM) | 0.05 (≈ 0.131 µM) | 0.025 (≈ 0.0657 µM) | 3.13 (≈ 8.23 µM) | 0.39 (≈ 1.03 µM) | MIC [21]: 0.025 µg/mL (≈ 0.0657 µM); MIC [22]: 0.025 µg/mL (≈ 0.0657 µM); MIC [23]: 0.05 µg/mL (≈ 0.131 µM); MIC [24]: 12.5 µg/mL (≈ 32.9 µM) |
| C[C@@H](O)[C@H]1C(=O)N2C(C(=O)O)=C(SC3CN(C4=NCCN4)C3)[C@H](C)[C@H]12 [Compound (15), (1R,5S,6S)-2-[1-(1,3-imidazolin-2-yl)azetidin-3-yl]thio-6-[(R)-1-hydroxyethyl]-1-methylcarbapen-2-em-3-carbolic acid] | 0.025 (≈ 0.0682 µM) | 1.56 (≈ 4.26 µM) | 0.013 (≈ 0.0355 µM) | 1.56 (≈ 4.26 µM) | 0.05 (≈ 0.136 µM) | 0.78 (≈ 2.13 µM) | 0.2 (≈ 0.546 µM) | ≤ 0.006 | 0.1 (≈ 0.273 µM) | ≤ 0.006 | 0.1 (≈ 0.273 µM) | 0.1 (≈ 0.273 µM) | 0.78 (≈ 2.13 µM) | 0.05 (≈ 0.136 µM) | 1.56 (≈ 4.26 µM) | 0.025 (≈ 0.0682 µM) | 0.05 (≈ 0.136 µM) | 0.05 (≈ 0.136 µM) | 1.56 (≈ 4.26 µM) | 0.78 (≈ 2.13 µM) | MIC [21]: 0.025 µg/mL (≈ 0.0682 µM); MIC [22]: 0.025 µg/mL (≈ 0.0682 µM); MIC [23]: 0.025 µg/mL (≈ 0.0682 µM); MIC [24]: 3.13 µg/mL (≈ 8.54 µM) |
